Assay results from ChEMBL document CHEMBL1201862, “PubChem BioAssay data set” (2004).
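Interpolation was linear, between the two tested concentrations surrounding the appropriate level; five concentrations were tested over 48 hours in 96-well plates. GI50 = concentration required for 50% inhibition of growth.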 Calls of active or inactive are those of the source. Rule as the data show it: active = GI50 up to about 1.1 µM and inactive = higher.

Columns and labels:
Experiment in all cases: NCI anticancer screen, dose series, 48 h
CCRF-CEM = tested on: CCRF-CEM
EKVX = tested on: EKVX
HCC 2998 = tested on: HCC 2998
HOP-92 = tested on: HOP-92
Hs-578T = tested on: Hs-578T
LOX IMVI = tested on: LOX IMVI
MCF7 = tested on: MCF7
MDA-MB-435 = tested on: MDA-MB-435
NCI-H226 = tested on: NCI-H226
NCI-H23 = tested on: NCI-H23
OVCAR-8 = tested on: OVCAR-8
SF-539 = tested on: SF-539
SK-MEL-2 = tested on: SK-MEL-2
SN12C = tested on: SN12C
SNB-19 = tested on: SNB-19
U-251 = tested on: U-251
UACC-257 = tested on: UACC-257
T47D = tested on: T47D
SR = tested on: SR

Measured: GI50

CC1=CC(=O)/C(=C/n2c(=S)[nH]c3cc(C)ccc32)C(=O)O1
inactive: CCRF-CEM 98.9 µM | EKVX > 100 µM | HCC 2998 > 100 µM | HOP-92 > 100 µM | Hs-578T > 100 µM | LOX IMVI > 100 µM | MCF7 > 100 µM | MDA-MB-435 > 100 µM | NCI-H226 > 100 µM | NCI-H23 > 100 µM | OVCAR-8 > 100 µM | SF-539 > 100 µM | SK-MEL-2 > 100 µM | SN12C > 100 µM | SNB-19 > 100 µM | U-251 > 100 µM | UACC-257 > 100 µM

CCOP(=O)(/C=C/n1ccc(N)nc1=O)OCC
inactive: CCRF-CEM > 100 µM | EKVX > 100 µM | Hs-578T > 100 µM | LOX IMVI > 100 µM | MCF7 > 100 µM | MDA-MB-435 > 100 µM | NCI-H226 97.9 µM | NCI-H23 > 100 µM | OVCAR-8 > 100 µM | SF-539 > 100 µM | SK-MEL-2 > 100 µM | SN12C > 100 µM | SNB-19 > 100 µM | T47D > 100 µM | U-251 > 100 µM | UACC-257 > 100 µM

NCCN1C(=O)CN=C(c2ccc(Cl)cc2)c2cc(Cl)ccc21
inactive: CCRF-CEM 15.5 µM | EKVX 26.2 µM | HCC 2998 16.5 µM | HOP-92 9.84 µM | Hs-578T 16.1 µM | LOX IMVI 16.2 µM | MDA-MB-435 14.9 µM | NCI-H226 14 µM | NCI-H23 18.1 µM | OVCAR-8 16.7 µM | SF-539 17.4 µM | SK-MEL-2 16.3 µM | SN12C 22.5 µM | SNB-19 20.1 µM | SR 17.9 µM | T47D 21.8 µM | U-251 16.8 µM | UACC-257 19 µM

COC(=O)c1c(-c2ccccc2)sc(-c2cccc3ccccc23)c1C(=O)OC
inactive: CCRF-CEM > 100 µM | EKVX > 100 µM | HCC 2998 88.3 µM | HOP-92 > 100 µM | LOX IMVI > 100 µM | NCI-H226 > 100 µM | NCI-H23 > 100 µM | OVCAR-8 > 100 µM | SF-539 > 100 µM | SK-MEL-2 > 100 µM | SN12C > 100 µM | SNB-19 > 100 µM | U-251 > 100 µM | UACC-257 > 100 µM

CC1CN=C(N(C)C(=O)Nc2ccc(Cl)c(Cl)c2)S1 (centres undefined)
inactive: CCRF-CEM 33.3 µM | EKVX 32.4 µM | HCC 2998 38.6 µM | HOP-92 4.76 µM | Hs-578T 22.8 µM | LOX IMVI 17.5 µM | MCF7 19.3 µM | NCI-H23 32.3 µM | OVCAR-8 27.2 µM | SF-539 17.7 µM | SK-MEL-2 17.4 µM | SN12C 26.5 µM | SNB-19 80 µM | SR 29.2 µM | T47D 19.3 µM | U-251 31.6 µM | UACC-257 26.9 µM

CCN(CC)c1ccc2cc(-c3nnc(-c4ccccc4O)o3)c(=O)oc2c1
inactive: CCRF-CEM 2.37 µM | EKVX 17 µM | HCC 2998 13.6 µM | Hs-578T 20.1 µM | LOX IMVI 6.73 µM | MCF7 10.3 µM | MDA-MB-435 12.9 µM | NCI-H23 8.93 µM | OVCAR-8 2.4 µM | SF-539 8.18 µM | SK-MEL-2 14.5 µM | SNB-19 9.68 µM | SR 5.87 µM | U-251 7.71 µM | UACC-257 14.3 µM

CCN(CC)CCNc1nc(N)c(C#N)c(C#N)c1C#N
inactive: CCRF-CEM > 10 µM | EKVX > 10 µM | HCC 2998 > 10 µM | HOP-92 > 10 µM | Hs-578T > 10 µM | LOX IMVI > 10 µM | MCF7 > 10 µM | MDA-MB-435 > 10 µM | NCI-H226 > 10 µM | NCI-H23 > 10 µM | OVCAR-8 > 10 µM | SF-539 > 10 µM | SN12C > 10 µM | SNB-19 > 10 µM | T47D > 10 µM | U-251 > 10 µM | UACC-257 > 10 µM

CCOC(=O)C(=O)/C(=C/NC(=S)Nc1ccc(Cl)c(Cl)c1)C(=O)OCC
inactive: CCRF-CEM 53.3 µM | EKVX 25.6 µM | HOP-92 55.8 µM | Hs-578T 44.5 µM | LOX IMVI > 100 µM | MCF7 62.2 µM | MDA-MB-435 72.1 µM | NCI-H226 56 µM | NCI-H23 70 µM | OVCAR-8 > 100 µM | SF-539 25.6 µM | SK-MEL-2 69.2 µM | SN12C 88.3 µM | SNB-19 > 100 µM | SR 30.5 µM | U-251 > 100 µM | UACC-257 60.3 µM

CCOP(=O)(Cc1nc(C#N)c(N)o1)OCC
inactive: CCRF-CEM > 100 µM | EKVX > 100 µM | HCC 2998 > 100 µM | HOP-92 > 100 µM | Hs-578T > 100 µM | LOX IMVI > 100 µM | MCF7 > 100 µM | MDA-MB-435 > 100 µM | NCI-H226 > 100 µM | SK-MEL-2 > 100 µM | SN12C > 100 µM | SNB-19 > 100 µM | SR > 100 µM | U-251 > 100 µM | UACC-257 > 100 µM

COC(=O)Nc1nc2cc(NC(=O)c3ccc(I)cc3)ccc2[nH]1
inactive: CCRF-CEM > 100 µM | EKVX > 100 µM | HOP-92 > 100 µM | Hs-578T 84.1 µM | LOX IMVI > 100 µM | MCF7 > 100 µM | MDA-MB-435 > 100 µM | NCI-H226 > 100 µM | NCI-H23 > 100 µM | OVCAR-8 > 100 µM | SF-539 > 100 µM | SK-MEL-2 > 100 µM | SN12C > 100 µM | SNB-19 > 100 µM | T47D > 100 µM | U-251 > 100 µM | UACC-257 > 100 µM

O=C(NNc1nc(-c2ccccc2)cs1)Nc1ccccc1
inactive: CCRF-CEM 34.3 µM | EKVX 32 µM | HCC 2998 25.6 µM | Hs-578T 28.9 µM | MCF7 25.3 µM | MDA-MB-435 22.2 µM | NCI-H226 20.4 µM | NCI-H23 20.2 µM | OVCAR-8 22.7 µM | SK-MEL-2 16.1 µM | SN12C 30.9 µM | SNB-19 44.1 µM | T47D 23.2 µM | U-251 22.2 µM | UACC-257 20.7 µM

COC(=O)c1cnn2c1ccc1ccccc12
inactive: CCRF-CEM > 100 µM | EKVX 55.3 µM | HOP-92 > 100 µM | Hs-578T > 100 µM | LOX IMVI > 100 µM | MDA-MB-435 > 100 µM | NCI-H226 > 100 µM | NCI-H23 > 100 µM | OVCAR-8 > 100 µM | SF-539 > 100 µM | SK-MEL-2 > 100 µM | SN12C > 100 µM | SNB-19 > 100 µM | T47D > 100 µM | U-251 > 100 µM | UACC-257 > 100 µM

O=C1C2=Cc3ccccc3CCN2c2ccc([N+](=O)[O-])cc21
inactive: CCRF-CEM 53.3 µM | EKVX 21.4 µM | HCC 2998 > 100 µM | HOP-92 41.2 µM | Hs-578T 64.6 µM | LOX IMVI 92.7 µM | MCF7 2.92 µM | MDA-MB-435 > 100 µM | NCI-H226 64 µM | NCI-H23 38.5 µM | OVCAR-8 35.4 µM | SF-539 82.6 µM | SN12C 81.5 µM | SNB-19 > 100 µM | SR 66.8 µM | U-251 > 100 µM | UACC-257 36.4 µM

O=S(=O)(/N=c1/[nH]c2ccccc2n1S(=O)(=O)c1ccccc1)c1ccccc1
inactive: CCRF-CEM 31.3 µM | EKVX 65.6 µM | HOP-92 38.5 µM | Hs-578T 88.1 µM | LOX IMVI > 100 µM | MDA-MB-435 36.8 µM | NCI-H226 56.2 µM | NCI-H23 41.6 µM | OVCAR-8 55 µM | SK-MEL-2 35.4 µM | SN12C 65.5 µM | SNB-19 32.7 µM | SR > 10 µM | T47D 53.1 µM | U-251 22.1 µM | UACC-257 45 µM

O=C(c1cc(Cl)ccc1Cl)N1CCN(c2cccc(Cl)c2)CC1
inactive: CCRF-CEM 12.2 µM | EKVX 22.9 µM | HCC 2998 13.5 µM | HOP-92 > 10 µM | Hs-578T 21.9 µM | LOX IMVI 10.9 µM | MCF7 12.4 µM | NCI-H226 12.8 µM | NCI-H23 32.9 µM | OVCAR-8 14.8 µM | SF-539 13.6 µM | SN12C 4.09 µM | SNB-19 34.8 µM | SR 26.4 µM | T47D 10.7 µM | U-251 19 µM | UACC-257 15.2 µM

CC1=[N+]([O-])C2(CCCC2)N(O)C1(C)C
inactive: EKVX > 100 µM | HCC 2998 > 100 µM | HOP-92 > 100 µM | Hs-578T > 100 µM | LOX IMVI > 100 µM | MCF7 > 100 µM | MDA-MB-435 > 100 µM | NCI-H226 > 100 µM | NCI-H23 > 100 µM | OVCAR-8 > 100 µM | SF-539 > 100 µM | SK-MEL-2 > 100 µM | SN12C > 100 µM | SNB-19 > 100 µM | T47D > 100 µM | U-251 > 100 µM | UACC-257 > 100 µM

COc1ccc2cc3[n+](cc2c1O)CCc1cc2c(cc1-3)OCO2 [BERBERRUBINE CHLORIDE]
inactive: CCRF-CEM 80.7 µM | EKVX > 100 µM | HCC 2998 > 100 µM | LOX IMVI 40.4 µM | NCI-H226 > 100 µM | NCI-H23 70 µM | OVCAR-8 > 100 µM | SF-539 > 100 µM | SK-MEL-2 > 100 µM | SN12C > 100 µM | SNB-19 > 100 µM | U-251 > 100 µM | UACC-257 > 100 µM
